{
  "source": "patent US11590087B2",
  "about": "“Cannabidiol-type cannabinoid compound” (GW Research Limited, priority 2019, dated 2023)",
  "key": {"[1]": {"test_system": "tonic hind limb extensor convulsions", "assay": "Maximal electroshock seizure threshold (MEST) test in the mouse", "settings": "for % change from vehicle (CC50) / CC50 ± SEM: mouse", "method": "The efficacy of 6-OH CBDV was tested in a mouse model of generalised seizure, the maximal electroshock seizure threshold (MEST) test.\nThe maximal electroshock seizure threshold (MEST) test is widely utilized preclinically to evaluate pro- or anti-convulsant properties of test compounds (Loscher et al., 1991).\nIn the MEST test the ability of a drug to alter the seizure threshold current required to induce hind limb tonic extensor convulsions is measured according to an “up and down” method of shock titration (Kimball et al., 1957). An increase in seizure threshold is indicative of anti-convulsant effect.\nThe ability of a test compound to alter the stimulus intensity, expressed as current (mA), required to induce the presence of tonic hind limb extensor convulsions, is assessed in the MEST.\nNaïve mice were acclimatised to the procedure room in their home cages for up to 7 days, with food and water available ad libitum.\nAll animals were weighed at the beginning of the study and randomly assigned to treatment groups based on a mean distribution of body weight across groups.\nThe first animal within a treatment group was given a shock at the expected or estimated CC50 current. For subsequent animals, the current was lowered or raised depending on the convulsions outcome from the preceding animal.\nData generated from each treatment group were used to calculate the CC50±SEM values for the treatment group.\nVehicle: (5% ethanol, 5% solutol, 90% Saline) was prepared as follows: 2 mL of ethanol, 2 mL of solutol were warmed to 60° C., in 36 mL of saline (1:1:18).\nThe test compound, alpha 6-OH CBDV was prepared according to the method described in Example 1. 6-OH CBDV was administered at 3, 10 and 30 mg/kg (i.p.) in a 1:1:18 ethanol:soluto:0.9% saline formulation.\n6-OH CBDV effects were also calculated as percentage change in CC50 from the vehicle control group.\nSignificant difference between drug-treated animals and controls were assessed according to Litchfield and Wilcoxon (1949)."}, "[2]": {"test_system": "tonic hind limb extensor seizure", "assay": "Supramaximal electroshock seizure (MES) test in the mouse", "assay_type": "in vivo", "source_text": "The supramaximal electroshock seizure ([…]) test is widely utilized preclinically to evaluate anti-convulsant properties of molecules and standard anti-epileptic drugs (Loscher et al., 1991).\nThe MES test is a very stringent model in which mice receive a predetermined high-level electrical stimulus of sufficient intensity to reliably produce tonic hindlimb extensor seizures in 100% of control animals. As such the MES test is a rigorous evaluation of anticonvulsant activity (Swinyard, 1985).\nAnimals were dosed i.p. according to treatment group.\nThe vehicle (10 ml/kg i.p. 60 min pre-treatment time) was 1:1:18 vehicle 5% ethanol, 5% kolliphor EL, 90% saline.\nThe test compound, 6-OH CBDV was administered at doses of 3, 10, 30, and 100 mg/kg given at 10 ml/kg i.p. 60 min pre-treatment time.\nThe positive control valproate was used at 250 mg/kg (10 ml/kg i.p. 30 min pre-treatment time).\nInduction of seizure is measured as an all-or-nothing effect scored as either present (+) or absent (0) for each animal.\nData was collected by an observer unaware of the treatment for each animal and was expressed as the number of +'s or 0's for each treatment group.\nThe percentage inhibition of relevant vehicle treated group (the protection relative to vehicle treated controls) was then generated.\nSignificant differences between individual treatment groups and vehicle-treated groups were assessed using 2-tailed Fisher's Exact Probability test (p<0.05 considered significant)."}, "[3]": {"settings": "3 mg/kg i.p., 15 min pre-treatment"}, "[4]": {"settings": "10 mg/kg i.p., 15 min pre-treatment"}, "[5]": {"settings": "30 mg/kg i.p., 30 min pre-treatment"}, "[6]": {"settings": "250 mg/kg i.p., 30 min pre-treatment"}},
  "data": [
    {"smiles": "C=C(C)[C@@H]1CC(O)C(C)=C[C@H]1c1c(O)cc(CCC)cc1O", "note": "(stereo partly drawn) [6-OH CBDV, Alpha 6-hydroxy cannabidivarin]", "values": [
      {"measurement": "% change from vehicle (CC50)", "setting": "[1]; [3]", "value": 111, "unit": "%"},
      {"measurement": "CC50 ± SEM", "setting": "[1]; [3]", "value": "54.2 ± 1.4", "unit": "mA"},
      {"measurement": "% change from vehicle (CC50)", "setting": "[1]; [4]", "value": 147, "unit": "%"},
      {"measurement": "CC50 ± SEM", "setting": "[1]; [4]", "value": "63.5 ± 3.4", "unit": "mA"},
      {"measurement": "% change from vehicle (CC50)", "setting": "[1]; [5]", "value": 260, "unit": "%"},
      {"measurement": "CC50 ± SEM", "setting": "[1]; [5]", "value": "92.5 ± 0.4", "unit": "mA"},
      {"measurement": "Effect on MEST (seizure threshold) across doses", "setting": "[1]; mouse, 3, 10 and 30 mg/kg i.p.", "value": "dose-related increase in MEST"},
      {"measurement": "% change from vehicle", "setting": "[2]; 3 mg/kg i.p., 60 min pre-treatment", "value": 20, "unit": "%"},
      {"measurement": "% change from vehicle", "setting": "[2]; 10 mg/kg i.p., 60 min pre-treatment", "value": 20, "unit": "%"},
      {"measurement": "% change from vehicle", "setting": "[2]; 30 mg/kg i.p., 60 min pre-treatment", "value": 100, "unit": "%"},
      {"measurement": "Induction of seizure (present/absent)", "setting": "[2]; 30 mg/kg i.p., 60 minutes before the test", "value": "enabled all mice to withstand seizures"},
      {"measurement": "% change from vehicle", "setting": "[2]; 100 mg/kg i.p., 60 min pre-treatment", "value": 100, "unit": "%"},
      {"measurement": "Induction of seizure (present/absent)", "setting": "[2]; 100 mg/kg i.p., 60 minutes before the test", "value": "enabled all mice to withstand seizures"}
    ]},
    {"smiles": "CN1C(=O)CN=C(c2ccccc2)c2cc(Cl)ccc21", "note": "[Diazepam, diazepam, reference compound]", "values": [
      {"measurement": "% change from vehicle (CC50)", "setting": "[1]; 2.5 mg/kg i.p., 30 min pre-treatment", "value": 124, "unit": "%"}
    ]},
    {"smiles": "CCCC(CCC)C(=O)[O-].[Na+]", "note": "[Valproate, sodium valproate, reference compound]", "values": [
      {"measurement": "% change from vehicle (CC50)", "setting": "[1]; [6]", "value": 997, "unit": "%"},
      {"measurement": "% change from vehicle", "setting": "[2]; [6]", "value": 100, "unit": "%"},
      {"measurement": "Induction of seizure (present/absent)", "setting": "[2]; 250 mg/kg i.p., 30 minutes before the test", "value": "all animals were scored as not having a seizure"}
    ]}
  ]
}
